# Several values for one entry are separate records, joined by “and”; a condition that tells them apart may be missing. Equal values may be shown once.
# System: migraine attacks
# Assay: Naltrexone/acetaminophen open-label pilot study, acute treatment of migraine: headache pain (4-point scale; relief score ≤1, pain-free score = 0), associated symptoms, additional meds
# Format: in vivo, human
# Method: Sixteen unique patients were enrolled in an open phase pilot study for the acute treatment of migraine attacks, insomnia, and emotional pain. Of the sixteen patients, eleven were evaluated for one migraine attack, one for two attacks, two for four attacks, one for six attacks, and one for fourteen attacks. A total of forty-one […] treatments were evaluated. Patients received a single dose of one of the following treatment options:
# The majority of the patients remained in the clinic for observation for 2 hours after dosing. They completed headache diary assessments immediately before and after dosing at time points: 7, 15, and 30 minutes; and 1, 1.5, 2, 3, 6, 12, 24, and 48 hours. Headache pain was assessed on a 4-point scale (0=none; 1=mild; 2=moderate; 3=severe). The assessment of photophobia, phonophobia, nausea, and neck/shoulder pain was assessed as present or absent. The assessment of emotional pain was recorded on a 4-point scale (0=none, 1=mild, 2=moderate, 3=severe). The assessment of difficulty sleeping or falling asleep (insomnia) was assessed on a 4-point scale (0=none, 1=mild, 2=moderate, 3=severe) at baseline, for the night before treatment and for the following nights at 24, and 48 hours. Patients recorded side effects severity at each time point. Patients recorded the time of the first rescue medication dose and all additional headache medications used within 48 hours. Patients were required to stay awake to record their assessments in the first 2 hours, sleeping was permitted thereafter. While asleep, assessments were completed according to patients' best estimation. For data analysis, it was assumed that a migraine attack is a unique patient. Patients were asked to specify (yes or no answer) to whether they experienced emotional pain symptoms such as: hurt feelings, sadness, fear, or anger. Patients who replied positively to having emotional pain were asked to specify the cause into one of the following options: relationship, work/school, money/debt, health, or loss/grief.
# [1] = 3 h, NTX/APAP 3.25 mg/325 mg, NTX 3.25 mg
# [2] = 3 h, NTX/APAP 5 mg/325 mg, NTX 5 mg
# [3] = 3 h, NTX/APAP […]325 mg, NTX 1.5 mg
# [4] = 3 h, naltrexone/acetaminophen 2.25 mg/325 mg (N=21), naltrexone 2.25 mg (N=9)
# [5] = 4 h, NTX/APAP 2.25 mg/325 mg, NTX 2.25 mg
# [6] = 4 h, NTX/APAP 3.25 mg/325 mg, NTX 3.25 mg
# [7] = 4 h, NTX/APAP 5 mg/325 mg, NTX 5 mg
# [8] = 4 h, NTX/APAP […]325 mg, NTX 1.5 mg
# [9] = 4 h, naltrexone/acetaminophen 2.25 mg/325 mg (N=21), naltrexone 2.25 mg (N=9)
# [10] = 6 h, NTX/APAP 2.25 mg/325 mg, NTX 2.25 mg
# [11] = 6 h, NTX/APAP 3.25 mg/325 mg, NTX 3.25 mg
# [12] = 6 h, NTX/APAP 5 mg/325 mg, NTX 5 mg
# [13] = 6 h, NTX/APAP […]325 mg, NTX 1.5 mg
# [14] = 6 h, naltrexone/acetaminophen 2.25 mg/325 mg (N=21), naltrexone 2.25 mg (N=9)
# [15] = 12 h, NTX/APAP 2.25 mg/325 mg, NTX 2.25 mg
smiles,measurement,setting,value
O=C1CC[C@@]2(O)[C@H]3Cc4ccc(O)c5c4[C@@]2(CCN3CC2CC2)[C@H]1O5 [naltrexone],Photophobia-free,"3 h, NTX/APAP 2.25 mg/325 mg, NTX 2.25 mg",8 (88) n (%)
same,Additional meds taken,[1],0
same,Headache pain-free,[1],3 (100) n (%)
same,Headache pain-relief,[1],3 (100) n (%)
same,Most bothersome symptom free,[1],3 (100) n (%)
same,Nausea-free,[1],3 (100) n (%)
same,Neck/shoulder pain-free,[1],3 (100) n (%)
same,Phonophobia-free,[1],3 (100) n (%)
same,Photophobia-free,[1],3 (100) n (%)
same,Additional meds taken,[2],0
same,Headache pain-free,[2],1 (100) n (%)
same,Headache pain-relief,[2],1 (100) n (%)
same,Most bothersome symptom free,[2],1 (100) n (%)
same,Nausea-free,[2],1 (100) n (%)
same,Neck/shoulder pain-free,[2],1 (100) n (%)
same,Phonophobia-free,[2],1 (100) n (%)
same,Photophobia-free,[2],1 (100) n (%)
same,Additional meds taken,[3],0
same,Headache pain-free,[3],3 (100) n (%)
same,Headache pain-relief,[3],3 (100) n (%)
same,Most bothersome symptom free,[3],3 (100) n (%)
same,Nausea-free,[3],3 (100) n (%)
same,Neck/shoulder pain-free,[3],3 (100) n (%)
same,Phonophobia-free,[3],3 (100) n (%)
same,Photophobia-free,[3],3 (100) n (%)
same,Additional meds taken,"3 h, combined doses",0
same,Headache pain-free,"3 h, combined doses",14 (88) n (%)
same,Headache pain-relief,"3 h, combined doses",16 (100) n (%)
same,Most bothersome symptom free,"3 h, combined doses",16 (100) n (%)
same,Nausea-free,"3 h, combined doses",16 (100) n (%)
same,Neck/shoulder pain-free,"3 h, combined doses",16 (100) n (%)
same,Phonophobia-free,"3 h, combined doses",16 (100) n (%)
same,Photophobia-free,"3 h, combined doses",15 (94) n (%)
same,Headache pain-free,"3 h, naltrexone 1.5 mg (N=3)",100%
same,Headache pain-free,[4],77% and 100%
same,Headache pain-relief,[4],100%
same,Most bothersome symptom-free,[4],100%
same,Headache pain-free,"3 h, naltrexone/acetaminophen 3.25 mg/325 mg (N=3), naltrexone 3.25 mg (N=3)",100%
same,Additional meds taken,[5],0 (0)
same,Headache pain-free,[5],6 (66) n (%)
same,Headache pain-relief,[5],8 (88) n (%)
same,Most bothersome symptom-free,[5],8 (88) n (%)
same,Nausea-free,[5],8 (88) n (%)
same,Neck/shoulder pain-free,[5],9 (100) n (%)
same,Phonophobia-free,[5],8 (88) n (%)
same,Photophobia-free,[5],7 (77) n (%)
same,Additional meds taken,[6],0
same,Headache pain-free,[6],3 (100) n (%)
same,Headache pain-relief,[6],3 (100) n (%)
same,Most bothersome symptom-free,[6],3 (100) n (%)
same,Nausea-free,[6],3 (100) n (%)
same,Neck/shoulder pain-free,[6],3 (100) n (%)
same,Phonophobia-free,[6],3 (100) n (%)
same,Photophobia-free,[6],3 (100) n (%)
same,Additional meds taken,[7],0
same,Headache pain-free,[7],1 (100) n (%)
same,Headache pain-relief,[7],1 (100) n (%)
same,Most bothersome symptom-free,[7],1 (100) n (%)
same,Nausea-free,[7],1 (100) n (%)
same,Neck/shoulder pain-free,[7],1 (100) n (%)
same,Phonophobia-free,[7],1 (100) n (%)
same,Photophobia-free,[7],1 (100) n (%)
same,Additional meds taken,[8],0
same,Headache pain-free,[8],3 (100) n (%)
same,Headache pain-relief,[8],3 (100) n (%)
same,Most bothersome symptom-free,[8],3 (100) n (%)
same,Nausea-free,[8],3 (100) n (%)
same,Neck/shoulder pain-free,[8],3 (100) n (%)
same,Phonophobia-free,[8],3 (100) n (%)
same,Photophobia-free,[8],3 (100) n (%)
same,Additional meds taken,"4 h, combined doses",0
same,Headache pain-free,"4 h, combined doses",13 (81) n (%)
same,Headache pain-relief,"4 h, combined doses",15 (94) n (%)
same,Most bothersome symptom-free,"4 h, combined doses",15 (94) n (%)
same,Nausea-free,"4 h, combined doses",15 (94) n (%)
same,Neck/shoulder pain-free,"4 h, combined doses",16 (100) n (%)
same,Phonophobia-free,"4 h, combined doses",15 (94) n (%)
same,Photophobia-free,"4 h, combined doses",14 (88) n (%)
same,Headache pain-free,"4 h, naltrexone 1.5 mg (N=3)",100%
same,Headache pain-free,[9],66% and 100%
same,Headache pain-relief,[9],88%
same,Most bothersome symptom-free,[9],88%
same,Headache pain-free,"4 h, naltrexone/acetaminophen 3.25 mg/325 mg (N=3), naltrexone 3.25 mg (N=3)",100%
same,Additional meds taken,[10],0 (0)
same,Headache pain-free,[10],7 (77) n (%)
same,Headache pain-relief,[10],9 (100) n (%)
same,Most bothersome symptom-free,[10],9 (100) n (%)
same,Nausea-free,[10],9 (100) n (%)
same,Neck/shoulder pain-free,[10],9 (100) n (%)
same,Phonophobia-free,[10],9 (100) n (%)
same,Photophobia-free,[10],8 (88) n (%)
same,Additional meds taken,[11],0
same,Headache pain-free,[11],3 (100) n (%)
same,Headache pain-relief,[11],3 (100) n (%)
same,Most bothersome symptom-free,[11],3 (100) n (%)
same,Nausea-free,[11],3 (100) n (%)
same,Neck/shoulder pain-free,[11],3 (100) n (%)
same,Phonophobia-free,[11],3 (100) n (%)
same,Photophobia-free,[11],3 (100) n (%)
same,Additional meds taken,[12],0
same,Headache pain-free,[12],1 (100) n (%)
same,Headache pain-relief,[12],1 (100) n (%)
same,Most bothersome symptom-free,[12],1 (100) n (%)
same,Nausea-free,[12],1 (100) n (%)
same,Neck/shoulder pain-free,[12],1 (100) n (%)
same,Phonophobia-free,[12],1 (100) n (%)
same,Photophobia-free,[12],1 (100) n (%)
same,Additional meds taken,[13],0
same,Headache pain-free,[13],3 (100) n (%)
same,Headache pain-relief,[13],3 (100) n (%)
same,Most bothersome symptom-free,[13],3 (100) n (%)
same,Nausea-free,[13],3 (100) n (%)
same,Neck/shoulder pain-free,[13],3 (100) n (%)
same,Phonophobia-free,[13],3 (100) n (%)
same,Photophobia-free,[13],3 (100) n (%)
same,Additional meds taken,"6 h, combined doses",0
same,Headache pain-free,"6 h, combined doses",14 (88) n (%)
same,Headache pain-relief,"6 h, combined doses",16 (100) n (%)
same,Most bothersome symptom-free,"6 h, combined doses",16 (100) n (%)
same,Nausea-free,"6 h, combined doses",16 (100) n (%)
same,Neck/shoulder pain-free,"6 h, combined doses",16 (100) n (%)
same,Phonophobia-free,"6 h, combined doses",16 (100) n (%)
same,Photophobia-free,"6 h, combined doses",15 (94) n (%)
same,Headache pain-free,"6 h, naltrexone 1.5 mg (N=3)",100%
same,Headache pain-free,[14],77% and 100%
same,Headache pain-relief,[14],100%
same,Most bothersome symptom-free,[14],100%
same,Headache pain-free,"6 h, naltrexone/acetaminophen 3.25 mg/325 mg (N=3), naltrexone 3.25 mg (N=3)",100%
same,Additional meds taken,[15],0 (0)
same,Headache pain-free,[15],7 (77) n (%)
same,Headache pain-relief,[15],9 (100) n (%)
same,Most bothersome symptom-free,[15],9 (100) n (%)

# Reference: patent US11058680B2, “Combinations of opioid/TLR4 antagonists and acetaminophen for use in the treatment of emotional pain and insomnia” (Allodynic Threapeutics, LLC, priority 2016, dated 2021)
